Test results reported in ChEMBL document CHEMBL5215005, “Discovery of Efrotomycin Congeners and Heterologous Expression-Based Insights into the Self-Resistance Mechanism” (2022).
In brackets after ≈: the same amount, converted by molar mass.

What was measured:
Assay type in all cases: functional
Streptomyces albus = assay: Antibacterial activity against Streptomyces albus Del14 assessed as inhibition zone at 10 ug incubated for 2 days by disc diffusion assay; details: Del14, 48 h, time 2 day, read-out: IZ
Micrococcus luteus = assay: Antibacterial activity against Micrococcus luteus SCSIO ML01 by Mueller-Hinton broth microdilution method
Streptomyces lividans = assay: Antibacterial activity against Streptomyces lividans SBT18 assessed as inhibition zone at 10 ug incubated for 2 days by disc diffusion assay; details: SBT18, 48 h, time 2 day, read-out: IZ
Streptomyces coelicolor = assay: Antibacterial activity against Streptomyces coelicolor YF11 assessed as inhibition zone at 10 ug incubated for 2 days by disc diffusion assay; details: YF11, 48 h, time 2 day, read-out: IZ

| SMILES | zone of inhibition at 10 µg/disc (Streptomyces albus) [mm] | MIC (Micrococcus luteus) [µg/mL] | zone of inhibition at 10 µg/disc (Streptomyces lividans) [mm] | zone of inhibition at 10 µg/disc (Streptomyces coelicolor) [mm] |
| --- | --- | --- | --- | --- |
| C/C=C\C=C\[C@@H]1O[C@](O)([C@@H](CC)C(=O)NC/C=C/C=C(\C)[C@H](OC)[C@H](C)[C@@H]2O[C@H](/C=C/C=C/C=C(\C)C(=O)c3c(O)ccn(C)c3=O)[C@H](O)[C@H]2O)[C@H](O)[C@H](O[C@H]2O[C@@H](C)[C@H](O[C@@H]3O[C@@H](C)[C@H](O)[C@@H](O)[C@H]3OC)[C@H](OC)[C@@H]2O)C1(C)C | 15 | 8 (≈ 7.07 µM) |  |  |
| C/C=C\C=C\[C@@H]1O[C@](O)([C@H](CC)C(=O)NC/C=C/C=C(\C)[C@@H](OC)[C@@H](C)[C@H](O)[C@@H](O)/C=C/C=C/C=C/C=C(\C)C(=O)c2c(O)ccn(C)c2=O)[C@H](O)[C@H](O[C@H]2O[C@@H](C)[C@H](O[C@@H]3O[C@@H](C)[C@H](O)[C@@H](O)[C@H]3OC)[C@H](OC)[C@@H]2O)C1(C)C | 15 | 8 (≈ 7.17 µM) |  |  |
| C/C=C\C=C\[C@@H]1O[C@](O)([C@H](CC)C(=O)NC/C=C/C=C(\C)[C@@H](OC)[C@@H](C)[C@H](O)[C@@H](O)\C=C/C=C/C=C/C=C(\C)C(=O)c2c(O)ccn(C)c2=O)[C@H](O)[C@H](O[C@H]2O[C@@H](C)[C@H](O[C@@H]3O[C@@H](C)[C@H](O)[C@@H](O)[C@H]3OC)[C@H](OC)[C@@H]2O)C1(C)C | 15 | 8 (≈ 7.17 µM) | 8 | 8 |
| C/C=C\C=C\[C@@H]1O[C@](O)([C@H](CC)C(=O)NC/C=C/C=C(\C)[C@@H](OC)[C@@H](C)[C@H](O)[C@@H](O)\C=C/C=C/C=C/C=C(\C)C(=O)c2c(O)ccn(C)c2=O)[C@H](O)[C@H](O)C1(C)C | 15 | 8 (≈ 10.1 µM) | 8 | 8 |
| C/C=C\C=C\[C@@H]1O[C@](O)([C@@H](CC)C(=O)NC/C=C/C=C(\C)[C@H](OC)[C@H](C)[C@@H]2O[C@H](/C=C/C=C/C=C(\C)C(=O)c3c(O)ccn(C)c3=O)[C@@H](O)[C@H]2O)[C@H](O)[C@H](O[C@H]2O[C@@H](C)[C@H](O[C@@H]3O[C@@H](C)[C@H](O)[C@@H](O)[C@H]3OC)[C@H](OC)[C@@H]2O)C1(C)C | 15 | 8 (≈ 7.07 µM) |  |  |
